Patent US7041636B1, “Composition for counteracting hair loss” (priority 2004, dated 2006)

Test system: dandruff
Assay: dandruff removal trials, topical application before shampooing
Type: in vivo
Conditions: series of trials on subjects; applied twenty minutes before shampooing
Text: The author of the present inventions has engaged in research, and experimentation in the field of hair care products for a number of years. As a dandruff treatment, they investigated the use of polysorbate 80, procured from the Nourishair Company in the form of a thick gel. […] Based on this experience, they used the product on a number of subjects over a period of ten years. For antiseptic purposes and tactile response, they subsequently decided to add an amount of menthol to the polysorbate 80.

Q: How did the dandruff removal turn out when polysorbate 60 was run?
A: worked well

Q: polysorbate 80 was tested. Which dandruff removal did it give?
A: worked well
